Here are results for 34 molecules from US11186564B2, “Dual NAV1.2/5HT2a inhibitors for treating CNS disorders” (Sunovion Pharmaceuticals Inc., priority 2016, dated 2021).

The target in test [1] is human sodium channel NaV1.2 (Homo sapiens, UniProt Q99250). Kind of test: NaV1.2 inhibition, automated patch-clamp (Q-Patch HTX), slow inactivated state (state C). Type of test: cell-based. The following applies: for inhibition at 10 µM: read-out: NaV1.2 (% inh), 10 μM; for IC50: read-out: NaV1.2 IC50; for inhibition at 1 µM: 1 μM compound, read-out: NaV1.2 (% inh), 1 μM. In a few lines: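 CHO K-1 cells stably expressing human NaV1.2, whole-cell automated patch clamp, holding −100 mV; slow-inactivated state (state C) read at a 5 ms step to 0 mV after 10 s at −50 mV and 15 ms at −90 mV. Percent inhibition vs vehicle; IC50 by nonlinear least-squares fit.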
Sequence of human sodium channel NaV1.2 (Q99250 whole entry): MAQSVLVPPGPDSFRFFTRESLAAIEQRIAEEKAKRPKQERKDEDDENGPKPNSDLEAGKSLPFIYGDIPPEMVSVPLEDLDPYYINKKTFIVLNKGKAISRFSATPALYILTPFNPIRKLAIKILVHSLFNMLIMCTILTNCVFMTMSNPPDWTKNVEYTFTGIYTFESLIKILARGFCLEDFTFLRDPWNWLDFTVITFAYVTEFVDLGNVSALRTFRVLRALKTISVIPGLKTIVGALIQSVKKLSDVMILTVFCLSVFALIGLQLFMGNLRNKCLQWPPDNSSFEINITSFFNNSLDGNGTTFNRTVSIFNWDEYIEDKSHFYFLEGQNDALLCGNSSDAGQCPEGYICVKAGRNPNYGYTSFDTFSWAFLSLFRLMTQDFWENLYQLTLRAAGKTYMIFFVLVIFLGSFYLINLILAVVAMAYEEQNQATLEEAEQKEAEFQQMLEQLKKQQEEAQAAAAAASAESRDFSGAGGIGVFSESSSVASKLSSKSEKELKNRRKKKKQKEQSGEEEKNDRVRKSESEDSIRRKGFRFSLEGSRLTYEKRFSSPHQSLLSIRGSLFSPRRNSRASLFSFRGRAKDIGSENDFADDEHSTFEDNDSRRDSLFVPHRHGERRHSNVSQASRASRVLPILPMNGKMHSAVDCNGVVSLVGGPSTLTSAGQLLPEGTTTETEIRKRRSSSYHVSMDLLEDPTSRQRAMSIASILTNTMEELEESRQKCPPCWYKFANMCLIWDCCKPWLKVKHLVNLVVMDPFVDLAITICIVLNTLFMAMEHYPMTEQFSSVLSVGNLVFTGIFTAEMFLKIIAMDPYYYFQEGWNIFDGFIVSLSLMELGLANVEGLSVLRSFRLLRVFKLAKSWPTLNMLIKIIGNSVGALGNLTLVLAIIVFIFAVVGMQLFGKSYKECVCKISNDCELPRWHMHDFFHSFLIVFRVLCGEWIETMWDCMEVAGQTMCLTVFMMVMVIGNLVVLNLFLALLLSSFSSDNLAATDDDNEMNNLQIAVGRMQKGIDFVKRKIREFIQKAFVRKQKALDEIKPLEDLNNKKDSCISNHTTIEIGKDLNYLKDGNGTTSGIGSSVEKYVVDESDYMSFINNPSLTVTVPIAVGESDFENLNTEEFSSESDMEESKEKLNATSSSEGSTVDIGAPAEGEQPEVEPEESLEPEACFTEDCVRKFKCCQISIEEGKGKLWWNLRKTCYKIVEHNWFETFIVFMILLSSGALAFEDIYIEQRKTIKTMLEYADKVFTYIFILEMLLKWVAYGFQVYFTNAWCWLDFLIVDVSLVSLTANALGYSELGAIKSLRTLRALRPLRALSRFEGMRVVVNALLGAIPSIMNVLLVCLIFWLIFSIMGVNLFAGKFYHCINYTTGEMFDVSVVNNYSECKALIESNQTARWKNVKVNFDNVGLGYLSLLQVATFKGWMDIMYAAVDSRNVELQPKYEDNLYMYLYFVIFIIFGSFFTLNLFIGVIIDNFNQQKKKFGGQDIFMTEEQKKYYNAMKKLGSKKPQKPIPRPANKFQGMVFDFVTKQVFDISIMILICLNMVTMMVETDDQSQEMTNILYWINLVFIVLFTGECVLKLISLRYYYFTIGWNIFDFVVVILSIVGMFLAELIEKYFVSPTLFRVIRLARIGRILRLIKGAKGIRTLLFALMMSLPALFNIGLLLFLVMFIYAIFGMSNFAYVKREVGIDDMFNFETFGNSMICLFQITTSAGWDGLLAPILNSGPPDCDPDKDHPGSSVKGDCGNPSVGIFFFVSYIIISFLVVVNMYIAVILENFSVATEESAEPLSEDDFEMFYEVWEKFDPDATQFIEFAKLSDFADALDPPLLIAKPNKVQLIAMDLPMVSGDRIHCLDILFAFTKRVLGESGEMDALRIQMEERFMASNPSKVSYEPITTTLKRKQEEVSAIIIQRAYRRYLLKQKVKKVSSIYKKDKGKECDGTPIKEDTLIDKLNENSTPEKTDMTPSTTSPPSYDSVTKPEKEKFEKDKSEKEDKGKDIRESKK

For test [2], the target named is T1, recombinant human serotonin receptor 5-HT2A (Homo sapiens, UniProt P28223).
T1 construct: expressed in transfected cells; method B: loaded with Ca2+ dye
T1 sequence (P28223 whole entry): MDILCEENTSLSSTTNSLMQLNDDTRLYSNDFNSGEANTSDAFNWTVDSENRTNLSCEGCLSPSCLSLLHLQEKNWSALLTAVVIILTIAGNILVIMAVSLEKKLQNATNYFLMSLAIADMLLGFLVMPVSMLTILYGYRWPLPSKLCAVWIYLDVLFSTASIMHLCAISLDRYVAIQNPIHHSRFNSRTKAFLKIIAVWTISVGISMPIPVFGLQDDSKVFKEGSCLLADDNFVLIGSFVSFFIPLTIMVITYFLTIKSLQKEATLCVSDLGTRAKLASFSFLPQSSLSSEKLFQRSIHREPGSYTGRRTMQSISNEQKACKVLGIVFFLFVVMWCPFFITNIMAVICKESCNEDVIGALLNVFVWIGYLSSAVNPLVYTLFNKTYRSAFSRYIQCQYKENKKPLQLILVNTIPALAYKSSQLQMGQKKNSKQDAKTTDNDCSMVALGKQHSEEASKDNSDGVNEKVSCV
Kind of test: 5-HT2A antagonist Ca2+ assay in CHO-K1 cells (method A aequorin luminescence / method B FLIPR fluorescence). To be noted: antagonist mode vs EC80 of reference agonist, method A or B. In kind it is cell-based. The method, boiled down:
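Method A: CHO-K1 cells co-expressing human 5-HT2A and mitochondrial apoaequorin were given reference agonist at EC80 15 min after compound, with luminescence read. Method B: dye-loaded 5-HT2A CHO-K1 cells were pretreated with compound, then given serotonin at EC80, with FLIPR fluorescence read. IC50s came from nonlinear fits of percent inhibition.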

Setting [3] is: 10 μM compound, hNaV1.2 CHO cells, slow inactivated state.
[4] abbreviates: hNaV1.2 CHO cells, slow inactivated state.

The structures appear in SMILES notation. Counter-ions that a name gives are not always drawn. Like-named read-outs stand apart in the source and are kept apart here.

For `Clc1ccccc1OCCN1CCN(c2nsc3ccccc23)CC1` [Example 69, 3-(4-(2-(2-chlorophenoxy)ethyl)piperazin-1-yl)benzo[d]isothiazole], the inhibition at 10 µM in test [1] (setting [3]) is 91%. For the same molecule, in test [2] (read-out: 5HT2A IC50), the half-inhibitory concentration (IC50) amounted to 0.003 µM.

As to `c1ccc([C@H]2COC3(CCN(C[C@H]4CCc5ccccc54)CC3)C2)cc1` (single isomer, unassigned) [Compound 377], the IC50 in test [1] (setting [4]) was determined as 790 nM; in test [2] (read-out: 5HT2A IC50) it was 0.03 µM.

For the molecule `COc1ccccc1N1CCN(CC(O)COc2cccc3ccccc23)CC1` (centres unmarked) [Example 92, 1-(4-(2-methoxyphenyl)piperazin-1-yl)-3-(naphthalen-1-yloxy)propan-2-ol], the results for the IC50 in test [1] (setting [4]) and in test [2] (read-out: 5HT2A IC50) were 10 nM and 0.23 µM, respectively.

`Fc1ccc(O[C@@H]2CCN(CC3CCc4ncccc43)C2)cc1` (stereo partly drawn) [Example 3, 5-(((R)-3-(4-fluorophenoxy)pyrrolidin-1-yl)methyl)-6,7-dihydro-5H-cyclopenta[b]pyridine]: in test [1] (setting [4]), the inhibition at 1 µM was -5%. For the same molecule, the IC50 in test [2] (read-out: 5HT2A IC50) is 1.88 µM.

With `c1ccc2c(c1)CC1(CCN(CC3CCc4ccccc43)CC1)CO2` (centres unmarked) [Example 442, 1′-((2,3-dihydro-1H-inden-1-yl)methyl)spiro[chromane-3,4′-piperidine]], in test [1] (setting [4]), the inhibition at 1 µM was determined as 37%. Besides, in test [2] (read-out: 5HT2A IC50), the IC50 worked out at 0.59 µM.

In the case of `O[C@H](CO[C@@H]1CCc2ccccc21)CN1CC[C@@H](Oc2ccc(F)cc2)C1` [Example 46, (S)-1-(((R)-2,3-dihydro-1H-inden-1-yl)oxy)-3-((R)-3-(4-fluorophenoxy)pyrrolidin-1-yl)propan-2-ol], the inhibition at 1 µM in test [1] (setting [4]) stood at 41%. Further, the IC50 in test [2] (read-out: 5HT2A IC50) worked out at 0.03 µM.

As to `O[C@H](COc1ccccc1)CN1CCC2(CCc3ccccc3O2)CC1` [Example 440, (S)-1-phenoxy-3-(spiro[chromane-2,4′-piperidin]-1′-yl)propan-2-ol], the inhibition at 1 µM in test [1] (setting [4]) was -8%. Further, in test [2] (read-out: 5HT2A IC50), the IC50 is 0.08 µM.

Take `OC(CO[C@H]1CCc2ccccc21)CN1CC[C@@H](Oc2ccc(F)cc2)C1` (stereo partly drawn) [Example 42, 1-(((S)-2,3-dihydro-1H-inden-1-yl)oxy)-3-((R)-3-(4-fluorophenoxy)pyrrolidin-1-yl)propan-2-ol]: the IC50 in test [1] (setting [4]) was 750 nM; in test [2] (read-out: 5HT2A IC50), 0.83 µM.

For the molecule `COc1ccc2c(c1)C(CN1CCC(OCc3ccccc3C)CC1)CC2` (centres unmarked) [Example 242, 1-((6-methoxy-2,3-dihydro-1H-inden-1-yl)methyl)-4-((2-methylbenzyl)oxy)piperidine], the IC50 in test [1] (setting [4]) is 230 nM; in test [2] (read-out: 5HT2A IC50), 0.09 µM.

As to `OC(COC1CCCCC1)CN1[C@@H]2C[C@H]1CN(c1ccccc1)C2` (stereo partly drawn) [Example 281, 1-(cyclohexyloxy)-3-((1R,5S)-3-phenyl-3,6-diazabicyclo[3.1.1]heptan-6-yl)propan-2-ol], the concentration for half-maximal inhibition (IC50) was determined as 1790 nM in test [1] (setting [4]) and 1.36 µM in test [2] (read-out: 5HT2A IC50).

Take `COc1cccc(CCCN2CCC(Oc3ccccc3)CC2)c1` [Example 225, 1-(3-(3-methoxyphenyl)propyl)-4-phenoxypiperidine]: the inhibition at 10 µM in test [1] (setting [3]) amounted to 88%. Further, in test [2] (read-out: 5HT2A IC50), the IC50 turned out to be 0.25 µM.

As to `COc1ccccc1OC1CCN(CC2CCOc3ccccc32)CC1` (centres unmarked) [Example 162, 1-(chroman-4-ylmethyl)-4-(2-methoxyphenoxy)piperidine], the inhibition at 1 µM in test [1] (setting [4]) was determined as 32%. For the same molecule, in test [2] (read-out: 5HT2A IC50), the IC50 stood at 0.09 µM.

Turning to `OC(COC1CCCCC1)CN1[C@@H]2CC[C@H]1CN(c1ccccc1)C2` (stereo partly drawn) [Example 286, 1-(cyclohexyloxy)-3-((1R,5S)-3-phenyl-3,8-diazabicyclo[3.2.1]octan-8-yl)propan-2-ol], the IC50 worked out at 1250 nM in test [1] (setting [4]) and 0.01 µM in test [2] (5HT2A IC50, μM).

As to `c1ccc2c(c1)CC(CN1CCC3(CC1)Cc1ccccc1O3)C2` [Example 396, 1′-((2,3-dihydro-1H-inden-2-yl)methyl)-3H-spiro[benzofuran-2,4′-piperidine]], the IC50 in test [1] (setting [4]) turned out to be 170 nM; in test [2] (read-out: 5HT2A IC50) it was 0.09 µM.

`Cc1ccccc1OCC(O)CN1CCC(c2nc3ccccc3s2)CC1` (centres unmarked) [Example 91, 1-(4-(benzo[d]thiazol-2-yl)piperidin-1-yl)-3-(o-tolyloxy)propan-2-ol]: the IC50 was found to be 170 nM in test [1] (setting [4]) and 0.02 µM in test [2] (read-out: 5HT2A IC50).

`c1ccc2c(c1)CCC1(CCN(CCC3COCc4ccccc43)CC1)O2` (centres unmarked) [Example 421, 1′-(2-(isochroman-4-yl)ethyl)spiro[chromane-2,4′-piperidine]]: the inhibition at 1 µM in test [1] (setting [4]) is 29%. The IC50 in test [2] (read-out: 5HT2A IC50) was 0.13 µM.

Take `COc1ccc2c(c1)C(CN1CCC(Oc3ccc(F)cc3)CC1)CC2` (centres unmarked) [Example 113, 4-(4-fluorophenoxy)-1-((6-methoxy-2,3-dihydro-1H-inden-1-yl)methyl)piperidine hydrochloride]: the IC50 in test [1] (setting [4]) worked out at 550 nM; in test [2] (read-out: 5HT2A IC50) it was 0.002 µM.

With `N#Cc1ccc2c(c1)CCC2CN1CCC(Oc2ccc(F)cc2)CC1` (centres unmarked) [Example 121], the IC50 is 2090 nM in test [1] (setting [4]) and 0.07 µM in test [2] (read-out: 5HT2A IC50).

As for `N#Cc1cccc(OC2CCN(CCN3CCc4ccccc4C3=O)CC2)c1` [Example 197, 3-((1-(2-(1-oxo-3,4-dihydroisoquinolin-2(1H)-yl)ethyl)piperidin-4-yl)oxy)benzonitrile], in test [1] (setting [3]), the inhibition at 10 µM worked out at 47%. Besides, the 50% inhibitory concentration (IC50) in test [2] (read-out: 5HT2A IC50) stood at 1.25 µM.

Take `CCC(=O)c1ccc(OCC(O)CN2CCN(c3ccccc3)CC2)cc1` (centres unmarked) [Example 88, 1-(4-(2-hydroxy-3-(4-phenylpiperazin-1-yl)propoxy)phenyl)propan-1-one]: the IC50 in test [1] (setting [4]) came to 31200 nM; in test [2] (read-out: 5HT2A IC50) it was 0.58 µM.

In the case of `OC1(CN2CC[C@@H](Oc3ccc(F)cc3)C2)COCc2ccccc21` (stereo partly drawn) [Example 9, 4-(((R)-3-(4-fluorophenoxy)pyrrolidin-1-yl)methyl)isochroman-4-ol], the inhibition at 1 µM in test [1] (setting [4]) worked out at 1%. For the same molecule, in test [2] (read-out: 5HT2A IC50), the IC50 turned out to be 0.6 µM.

`OC(COC1CCCCC1)CN1C[C@@H]2CC[C@H]1CN2c1ccccc1` (stereo partly drawn) [Example 317, 1-(cyclohexyloxy)-3-((1S,4S)-5-phenyl-2,5-diazabicyclo[2.2.2]octan-2-yl)propan-2-ol]: the IC50 was determined as 1830 nM in test [1] (setting [4]) and 0.49 µM in test [2] (read-out: 5HT2A IC50).

For the molecule `OC(COC1CCCCC1)CN1CCC2(CCc3ccccc32)CC1` (centres unmarked) [Example 400, 1-(cyclohexyloxy)-3-(2,3-dihydrospiro[indene-1,4′-piperidin]-1′-yl)propan-2-ol], in test [1] (CHO), the inhibition at 10 µM is 102%. Moreover, in test [2] (5HT2A IC50, μM), the 50% inhibitory concentration (IC50) is 2.29 µM.

Regarding `Fc1ccc(OC2CCN(CC3CCc4cccnc43)CC2)cc1` (centres unmarked) [Example 128, 7-((4-(4-fluorophenoxy)piperidin-1-yl)methyl)-6,7-dihydro-5H-cyclopenta[b]pyridine], in test [1] (setting [3]), the inhibition at 10 µM came to 72%. The IC50 in test [2] (read-out: 5HT2A IC50) is 0.05 µM.

Turning to `Fc1ccc(OC2CCN(CC3CCc4cccc(F)c43)CC2)cc1` (centres unmarked) [Example 119, 1-((7-fluoro-2,3-dihydro-1H-inden-1-yl)methyl)-4-(4-fluorophenoxy)piperidine], the IC50 came to 180 nM in test [1] (setting [4]) and 0.02 µM in test [2] (read-out: 5HT2A IC50).

Consider `COc1cccc(CN2CCC3(CCc4ccccc4O3)CC2)c1` [Example 417, 1′-(3-methoxybenzyl) spiro[chromane-2,4′-piperidine]], for which the inhibition at 10 µM in test [1] (setting [3]) was found to be 94%. Also, in test [2] (read-out: 5HT2A IC50), the IC50 worked out at 0.69 µM.

Turning to `COc1ccc2c(c1)C(CN1CCC(NS(=O)(=O)c3ccc(F)cc3)CC1)CC2` (centres unmarked) [Example 250, 4-fluoro-N-(1-((6-methoxy-2,3-dihydro-1H-inden-1-yl)methyl)piperidin-4-yl)benzenesulfonamide], the IC50 worked out at 200 nM in test [1] (setting [4]) and 0.07 µM in test [2] (read-out: 5HT2A IC50).

With `NCCOc1ccc2c(c1)C(CN1CCC(Oc3ccc(F)cc3)CC1)CC2` (centres unmarked) [Example 114, 2-((3-((4-(4-fluorophenoxy)piperidin-1-yl)methyl)-2,3-dihydro-1H-inden-5-yl)oxy)ethan-1-amine], the inhibition at 10 µM in test [1] (setting [3]) turned out to be 52%. Besides, the IC50 in test [2] (read-out: 5HT2A IC50) worked out at 0.07 µM.

Regarding `c1ccc([C@@H]2COC3(CCN(C[C@H]4CCc5ccccc54)CC3)C2)cc1` (single isomer, unassigned) [Compound 379], the figures for the IC50 in test [1] (setting [4]) and in test [2] (read-out: 5HT2A IC50) were 290 nM and 0.04 µM, respectively.

As for `c1ccc(OC2CCN(CC3CCc4ccccc43)CC2)cc1` (centres unmarked) [Example 106, 1-((2,3-dihydro-1H-inden-1-yl)methyl)-4-phenoxypiperidine], the values for the IC50 in test [1] (setting [4]) and in test [2] (read-out: 5HT2A IC50) were over 10000 nM and 0.01 µM, respectively.

For `Fc1ccc(OC2CCN(CCC3COCc4ccccc43)CC2)cc1` (centres unmarked) [Example 184, 4-(4-fluorophenoxy)-1-(2-(isochroman-4-yl)ethyl)piperidine], the inhibition at 1 µM in test [1] (setting [4]) amounted to 35%. For the same molecule, in test [2] (read-out: 5HT2A IC50), the IC50 worked out at 0.08 µM.

Turning to `COc1ccccc1OC1CCN(CC2c3ccccc3CC2C)CC1` (centres unmarked) [Example 101, 4-(2-methoxyphenoxy)-1-((2-methyl-2,3-dihydro-1H-inden-1-yl)methyl)piperidine], the IC50 worked out at 370 nM in test [1] (setting [4]) and 0.08 µM in test [2] (read-out: 5HT2A IC50).

For the molecule `COc1ccc2c(c1)C(CN1CCC(Oc3ccncc3)CC1)CC2` (centres unmarked) [Example 117, 4-((1-((6-methoxy-2,3-dihydro-1H-inden-1-yl)methyl)piperidin-4-yl)oxy)pyridine], in test [1] (setting [4]), the inhibition at 1 µM was 1%. The IC50 in test [2] (read-out: 5HT2A IC50) came out at 0.58 µM.

Consider `OC(COC1CCCCc2ccccc21)CN1CCC(Oc2ccccc2)CC1` (centres unmarked) [Example 240, 1-(4-phenoxypiperidin-1-yl)-3-((6,7,8,9-tetrahydro-5H-benzo[7]annulen-5-yl)oxy)propan-2-ol], for which the IC50 in test [1] (setting [4]) is 960 nM; in test [2] (read-out: 5HT2A IC50), 0.11 µM.
